Results taken from patent US20260234630A1, “Methods for Treating Multiple Myeloma” (Celgene Corporation, priority 2022, published 2026).

Tests used:
Ikaros, Aiolos and ZFP91 = assay: Western blot of cereblon substrates in MM cells; assay type: cell-based
Method: FIG. 1A-1F. […] (1A) Volcano plot of protein expression changes determined by mass spectrometry in H929 cells at 24 hr of treatment with CC-220 (0.1 μM) or DMSO control. X axis, Log2fold change (FC); Y axis, significance,-log 10 [p-value]. […] (1B) Volcano plot of gene expression changes determined by Affymetrix microarray in H929 cells treated with POM (1 μM) or DMSO for 24 hr. X axis, Log2fold change (FC); Y axis, significance,-log 10 [p-value], n=2 technical replicates). […] (1C) Western blot analysis protein expression of UHRF1, Ikaros, Aiolos and ZFP91 in H929 cells treated with 1 μM POM for indicated time. (1D) qRT-PCR analysis of UHRF1 gene expression levels in cells as in (1C). Error bars represent the SEM from duplicate measurements. (1E) Western blot analysis protein expression of UHRF1 and indicated proteins in MM cells treated with DMSO (−) or 1 μM POM (+) for 3 days. GAPDH serves as a loading control. (1F) Thymidine incorporation of various MM cell lines treated with indicated dose of POM for 3 days. Error bars represent the SEM from technical replicates.
FIG. 2A-2E. […] (2A) Western blot analysis protein expression of UHRF1, Ikaros, Aiolos, ZFP91 and Cereblon expression in control [shLuciferase (shLuc)] and cereblon knockdown (shCRBN) H929 cells treated with DMSO and 1 μM POM for 3 days. GAPDH, loading control. Arrow head, UHRF1. (2B) qRT-PCR analysis of UHRF1 gene expression levels in cells as in (2A). Data was normalized to ACTB. Error bars represent the SEM of technical duplicates. *** P<0.001 (Two-tailed unpaired Student's t-test). (2C) Western blot analysis protein expression of UHRF1, Ikaros and Aiolos in stably transduced H929 cells after Dox induction (0, 10, 50 or 100 ng/ml) for 3 days of non-target shRNA (shNT) or shRNAs targeting Ikaros (shIKZF1) or Aiolos (shIKZF3). (2D) qRT-PCR analysis of UHRF1 gene expression levels in cells as in (2C). Shown are cells induced with Dox (50 ng/ml) for 3 days. Data was normalized to GAPDH. Error bars represent the SEM of technical duplicates. *P<0.05, ** P<0.01, *** P<0.001, **** P<0.0001 (Two-tailed unpaired Student's t-test). […] ChIP with control rabbit IgG (IgG) serves as a negative control. Error bars represent the SEM of technical triplicates. * P<0.05, ** P<0.01, **** P<0.0001 (Two-tailed unpaired Student's t-test).
Cells were lysed with cell lysis buffer (50 mM TrisHCl pH7.4, 250 mM NaCl, 0.5% Triton X100, 10% glycerol) supplemented with protease inhibitor cocktail. Cell lysates were subjected to sonication to breakdown nuclei and reduce viscosity caused by released genomic DNA. The protein concentration was measured by a Bradford Protein Assay (Bio-Rad). […] Proteins of interested were detected incubation with primary antibodies listed below at 4° C. overnight. […]

[1] = test system: multiple myeloma (MM) cells; assay: (3H)-thymidine incorporation assay of MM cell lines; assay type: cell-based; conditions: POM 3 days
Method: FIG. 1A-1F. Down regulation of UHRF1 transcription by IMiDs correlates with drug sensitivity of multiple myeloma. (1A) Volcano plot of protein expression changes determined by mass spectrometry in H929 cells at 24 hr of treatment with CC-220 (0.1 μM) or DMSO control. X axis, Log2fold change (FC); Y axis, significance,-log 10 [p-value]. […] (1B) Volcano plot of gene expression changes determined by Affymetrix microarray in H929 cells treated with POM (1 μM) or DMSO for 24 hr. X axis, Log2fold change (FC); Y axis, significance,-log 10 [p-value], n=2 technical replicates). […] (1C) Western blot analysis protein expression of UHRF1, Ikaros, Aiolos and ZFP91 in H929 cells treated with 1 μM POM for indicated time. (1D) qRT-PCR analysis of UHRF1 gene expression levels in cells as in (1C). Error bars represent the SEM from duplicate measurements. (1E) Western blot analysis protein expression of UHRF1 and indicated proteins in MM cells treated with DMSO (−) or 1 μM POM (+) for 3 days. GAPDH serves as a loading control. (1F) Thymidine incorporation of various MM cell lines treated with indicated dose of POM for 3 days. Error bars represent the SEM from technical replicates.
(3H)-thymidine incorporation assay was performed as previously described (PMID: 23252516) with minor modifications. Briefly, 1×10^4 or 2×10^5 multiple myeloma (MM) cells were cultured in 96-well culture plates in complete media with the indicated concentration of pomalidomide (POM) or DMSO control for 3 days. 37 kBg (3H)-thymidine was added to each will at the final 6 hour of incubation.

Nc1cccc2c1C(=O)N(C1CCC(=O)NC1=O)C2=O (centres unmarked) [POM, pomalidomide]
time to degradation of Ikaros, Aiolos and ZFP91 proteins (Ikaros, Aiolos and ZFP91; H929 cells, POM 1 μM, time course): ≤ 3 h
cereblon substrates (Ikaros, Aiolos, ZFP91) protein (Ikaros, Aiolos and ZFP91; MC/CAR and RPMI 8226 cells, 1 μM POM, 3 days): degraded
Ikaros, Aiolos and ZFP91 expression level (Ikaros, Aiolos and ZFP91; sensitive cell lines H929, MM1.S, DF15 and U266, 1 μM POM, 72 hours): downregulated
degradation of the substrates by POM under cereblon knockdown (Ikaros, Aiolos and ZFP91; shCRBN vs shLuc H929 cells, 1 μM POM, 3 days): rescued
drug sensitivity of cell lines ([1]; H929, MM1.S, DF15 and U266): sensitive
drug sensitivity of cell lines ([1]; H929 PR and DF15 PR (diminished cereblon expression)): acquired resistance
drug sensitivity of cell line ([1]; MC/CAR): less sensitive
drug sensitivity of cell line ([1]; RPMI 8226): intrinsically resistant
